For experiment [1], the target named is Dual specificity tyrosine-phosphorylation-regulated kinase 3 (Homo sapiens, UniProt O43781). The experiment is classed as functional.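 Further: measured as one member of a broad kinase panel.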
Experiment [2] concerns the target Death-associated protein kinase 3 (Homo sapiens, UniProt O43293). The experiment is classed as functional.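 Further: measured as one member of a kinome-wide profiling panel.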
The next experiment has as its target Misshapen-like kinase 1 (Homo sapiens, UniProt Q8N4C8). In kind it is functional.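 Further: kinome panel screen with MINK as the panel member.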
Experiment [3] addresses Non-receptor tyrosine-protein kinase TYK2 (Homo sapiens, UniProt P29597). In kind it is functional.
For experiment [4], the target named is Tyrosine-protein kinase Fer (Homo sapiens, UniProt P16591). The experiment is classed as functional.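 Further: FER tested as one member of a kinome panel.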
Experiment [5] addresses Serine/threonine-protein kinase PLK4 (Homo sapiens, UniProt O00444). In kind it is functional.
The target of experiment [6] is Phosphorylase b kinase gamma catalytic chain, liver/testis isoform (Homo sapiens, UniProt P15735). In kind it is functional.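 Further: PHKG2 measured as one member of a kinome-wide kinase panel.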
Chain of Phosphorylase b kinase gamma catalytic chain, liver/testis isoform (P15735 whole entry, canonical isoform): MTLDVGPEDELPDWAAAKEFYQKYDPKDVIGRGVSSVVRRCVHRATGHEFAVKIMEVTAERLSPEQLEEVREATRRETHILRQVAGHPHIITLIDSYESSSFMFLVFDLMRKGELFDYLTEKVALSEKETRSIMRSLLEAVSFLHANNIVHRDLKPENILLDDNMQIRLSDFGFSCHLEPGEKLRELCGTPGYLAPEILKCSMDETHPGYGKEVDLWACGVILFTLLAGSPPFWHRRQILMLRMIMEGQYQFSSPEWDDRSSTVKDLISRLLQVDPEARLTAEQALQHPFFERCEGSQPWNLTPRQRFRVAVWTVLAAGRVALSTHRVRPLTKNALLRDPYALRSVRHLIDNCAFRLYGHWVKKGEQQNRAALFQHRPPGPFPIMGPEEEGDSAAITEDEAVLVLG
Experiment [7] has as its target Serine/threonine-protein kinase Nek4 (Homo sapiens, UniProt P51957). In kind it is functional.
The target of experiment [8] is Ribosomal protein S6 kinase beta-1 (Homo sapiens, UniProt P23443). In kind it is functional.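 Further: measured as one member of a kinome-wide profiling panel.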
The next experiment addresses Insulin receptor (Homo sapiens, UniProt P06213). In kind it is functional.
Experiment [9] addresses Leucine-rich repeat serine/threonine-protein kinase 2 (Homo sapiens, UniProt Q5S007). In kind it is functional.
In experiment [10] the target is Cell division cycle 7-related protein kinase (Homo sapiens, UniProt O00311). The experiment is classed as functional.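 Further: value obtained from a kinome-wide kinase panel.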
Experiment [11] concerns the target BDNF/NT-3 growth factors receptor (Homo sapiens, UniProt Q16620). In kind it is functional.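 Further: NTRK2 measured as one member of a broad kinome-wide kinase profiling panel.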
Experiment [12] has as its target Cyclin-dependent kinase 7 (Homo sapiens, UniProt P50613). In kind it is functional.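 Further: value comes from a kinome-wide kinase profiling panel in which CDK7 is one member.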
Experiment [13] concerns the target Cyclin-dependent kinase 1 (Homo sapiens, UniProt P06493). The experiment is classed as functional.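 Further: Kinome-wide panel profiling, with the target listed as panel member CDC2.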
In experiment [14] the target is Serine/threonine-protein kinase DCLK1 (Homo sapiens, UniProt O15075). The experiment is classed as functional.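 Further: affinity for DCLK1 (listed as DCAMKL1) measured as one member of a kinome-wide kinase profiling panel.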
Chain of Serine/threonine-protein kinase DCLK1 (O15075 whole entry): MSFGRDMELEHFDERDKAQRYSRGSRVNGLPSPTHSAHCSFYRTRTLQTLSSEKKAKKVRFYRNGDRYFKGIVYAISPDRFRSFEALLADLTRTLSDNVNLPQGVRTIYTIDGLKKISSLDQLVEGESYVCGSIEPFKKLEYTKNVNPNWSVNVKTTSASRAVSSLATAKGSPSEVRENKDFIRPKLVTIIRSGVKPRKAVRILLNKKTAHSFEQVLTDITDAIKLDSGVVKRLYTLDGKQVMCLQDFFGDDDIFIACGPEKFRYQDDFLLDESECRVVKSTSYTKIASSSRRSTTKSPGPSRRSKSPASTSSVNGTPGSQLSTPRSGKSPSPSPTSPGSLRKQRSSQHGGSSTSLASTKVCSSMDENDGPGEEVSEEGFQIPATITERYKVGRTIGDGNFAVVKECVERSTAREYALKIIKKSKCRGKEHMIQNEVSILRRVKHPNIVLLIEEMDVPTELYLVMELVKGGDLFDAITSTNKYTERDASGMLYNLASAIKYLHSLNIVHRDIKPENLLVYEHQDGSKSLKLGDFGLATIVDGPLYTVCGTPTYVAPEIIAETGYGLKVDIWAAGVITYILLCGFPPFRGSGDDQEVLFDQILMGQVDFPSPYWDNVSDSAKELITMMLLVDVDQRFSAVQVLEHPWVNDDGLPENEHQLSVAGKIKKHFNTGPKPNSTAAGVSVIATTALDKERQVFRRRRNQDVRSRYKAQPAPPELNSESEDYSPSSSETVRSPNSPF
Experiment [15] deals with T1, Microphthalmia-associated transcription factor (Homo sapiens, UniProt O75030).
T1 sequence (O75030 whole entry): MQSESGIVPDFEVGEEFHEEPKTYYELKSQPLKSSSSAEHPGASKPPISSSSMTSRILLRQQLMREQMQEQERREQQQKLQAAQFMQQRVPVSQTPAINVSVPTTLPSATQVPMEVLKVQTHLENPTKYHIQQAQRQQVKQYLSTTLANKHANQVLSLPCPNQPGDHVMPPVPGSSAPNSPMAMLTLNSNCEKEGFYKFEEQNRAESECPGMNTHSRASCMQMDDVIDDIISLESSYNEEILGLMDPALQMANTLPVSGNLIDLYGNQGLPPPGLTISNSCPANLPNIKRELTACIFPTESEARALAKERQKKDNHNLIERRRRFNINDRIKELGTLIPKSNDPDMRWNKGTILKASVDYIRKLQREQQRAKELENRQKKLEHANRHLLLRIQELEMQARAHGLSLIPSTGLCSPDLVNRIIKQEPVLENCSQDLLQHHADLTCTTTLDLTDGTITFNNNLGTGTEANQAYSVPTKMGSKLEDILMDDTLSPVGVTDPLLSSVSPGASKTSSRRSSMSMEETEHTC
In words: reducers of TRPM1 reporter luminescence, concentration series – cell-based, SK-MEL-5, cherry-picked, set 3, MITF inhibitor project, dose response (AID 493073).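 Further: SK-MEL-5 melanoma cells with luciferase driven by the MITF target TRPM1 promoter.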 The experiment is classed as functional.

Experiment [16] concerns the target T2, Mannose-6-phosphate isomerase (Homo sapiens, UniProt P34949).
T2 sequence (P34949 whole entry): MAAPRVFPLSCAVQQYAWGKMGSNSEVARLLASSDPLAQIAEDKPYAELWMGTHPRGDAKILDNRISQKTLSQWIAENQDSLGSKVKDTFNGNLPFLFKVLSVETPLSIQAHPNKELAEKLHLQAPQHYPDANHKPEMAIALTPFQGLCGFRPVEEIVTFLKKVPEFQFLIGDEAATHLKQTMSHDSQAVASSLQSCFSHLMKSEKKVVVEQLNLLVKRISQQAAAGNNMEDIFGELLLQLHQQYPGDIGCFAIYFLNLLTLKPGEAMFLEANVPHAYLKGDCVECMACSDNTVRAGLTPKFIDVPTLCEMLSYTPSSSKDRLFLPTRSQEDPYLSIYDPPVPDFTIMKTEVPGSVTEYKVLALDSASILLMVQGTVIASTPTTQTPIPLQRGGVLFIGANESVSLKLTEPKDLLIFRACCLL
In words: MPI enzyme activity inhibition – biochemical, fluorescence intensity, coupled assay, primary screen (AID 1209).

Experiment [17] addresses T3, Replicative DNA helicase DnaB (Mycobacterium tuberculosis, UniProt P9WMR3).
T3 sequence (P9WMR3 whole entry): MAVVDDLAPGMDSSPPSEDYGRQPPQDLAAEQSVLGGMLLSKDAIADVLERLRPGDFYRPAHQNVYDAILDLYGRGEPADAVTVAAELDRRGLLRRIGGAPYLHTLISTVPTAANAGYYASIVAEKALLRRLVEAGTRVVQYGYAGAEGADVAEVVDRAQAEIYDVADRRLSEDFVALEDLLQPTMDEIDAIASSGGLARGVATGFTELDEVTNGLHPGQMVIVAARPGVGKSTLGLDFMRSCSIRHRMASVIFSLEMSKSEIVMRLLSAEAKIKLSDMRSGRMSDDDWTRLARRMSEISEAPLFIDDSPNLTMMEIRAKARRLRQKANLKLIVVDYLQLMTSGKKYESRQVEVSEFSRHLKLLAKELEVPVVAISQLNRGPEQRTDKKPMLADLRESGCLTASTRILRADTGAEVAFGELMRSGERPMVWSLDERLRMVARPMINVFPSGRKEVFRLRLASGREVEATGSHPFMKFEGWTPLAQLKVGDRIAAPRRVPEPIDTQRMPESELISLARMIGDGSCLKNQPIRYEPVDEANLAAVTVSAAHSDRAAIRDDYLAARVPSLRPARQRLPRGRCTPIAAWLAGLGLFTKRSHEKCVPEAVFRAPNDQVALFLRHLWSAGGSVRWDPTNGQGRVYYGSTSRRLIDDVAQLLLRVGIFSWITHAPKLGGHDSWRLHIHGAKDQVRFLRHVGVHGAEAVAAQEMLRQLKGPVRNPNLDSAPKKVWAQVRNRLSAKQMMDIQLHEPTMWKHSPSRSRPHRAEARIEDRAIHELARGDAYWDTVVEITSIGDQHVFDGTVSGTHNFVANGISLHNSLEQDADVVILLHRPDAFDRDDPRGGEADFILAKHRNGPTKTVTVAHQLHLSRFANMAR
In words: DnaB intein splicing inhibitors, dose response, biochemical, cell-free fluorescence (AID 449749). The experiment is classed as functional.

The target in experiment [18] is Histone-lysine N-methyltransferase NSD2 (Homo sapiens, UniProt O96028). In kind it is biochemical.

Activity calls are given as the source filed them.

For orientation: Ki means a dissociation constant, usually derived from enzyme kinetics or from competition with a known ligand. The term AC50 denotes the concentration giving half of the maximal activity seen. What is called IC50 is the midpoint of a concentration-inhibition curve. Low values mean greater potency in that assay, high ones weaker potency in that assay.

Chain of Death-associated protein kinase 3 (O43293 whole entry): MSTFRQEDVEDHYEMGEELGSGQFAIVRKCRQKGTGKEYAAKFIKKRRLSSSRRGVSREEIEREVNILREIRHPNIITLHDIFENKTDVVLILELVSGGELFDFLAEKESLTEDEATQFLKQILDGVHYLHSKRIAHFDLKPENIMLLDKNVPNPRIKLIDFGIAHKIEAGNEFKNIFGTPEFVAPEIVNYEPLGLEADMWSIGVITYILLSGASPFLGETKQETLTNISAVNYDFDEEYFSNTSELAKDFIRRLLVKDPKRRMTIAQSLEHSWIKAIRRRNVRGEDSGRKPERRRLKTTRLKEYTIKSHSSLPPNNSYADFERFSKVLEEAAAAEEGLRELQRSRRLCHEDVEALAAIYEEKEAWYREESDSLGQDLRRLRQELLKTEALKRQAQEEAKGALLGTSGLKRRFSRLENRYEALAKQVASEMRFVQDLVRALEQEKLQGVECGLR
Chain of Serine/threonine-protein kinase Nek4 (P51957 whole entry): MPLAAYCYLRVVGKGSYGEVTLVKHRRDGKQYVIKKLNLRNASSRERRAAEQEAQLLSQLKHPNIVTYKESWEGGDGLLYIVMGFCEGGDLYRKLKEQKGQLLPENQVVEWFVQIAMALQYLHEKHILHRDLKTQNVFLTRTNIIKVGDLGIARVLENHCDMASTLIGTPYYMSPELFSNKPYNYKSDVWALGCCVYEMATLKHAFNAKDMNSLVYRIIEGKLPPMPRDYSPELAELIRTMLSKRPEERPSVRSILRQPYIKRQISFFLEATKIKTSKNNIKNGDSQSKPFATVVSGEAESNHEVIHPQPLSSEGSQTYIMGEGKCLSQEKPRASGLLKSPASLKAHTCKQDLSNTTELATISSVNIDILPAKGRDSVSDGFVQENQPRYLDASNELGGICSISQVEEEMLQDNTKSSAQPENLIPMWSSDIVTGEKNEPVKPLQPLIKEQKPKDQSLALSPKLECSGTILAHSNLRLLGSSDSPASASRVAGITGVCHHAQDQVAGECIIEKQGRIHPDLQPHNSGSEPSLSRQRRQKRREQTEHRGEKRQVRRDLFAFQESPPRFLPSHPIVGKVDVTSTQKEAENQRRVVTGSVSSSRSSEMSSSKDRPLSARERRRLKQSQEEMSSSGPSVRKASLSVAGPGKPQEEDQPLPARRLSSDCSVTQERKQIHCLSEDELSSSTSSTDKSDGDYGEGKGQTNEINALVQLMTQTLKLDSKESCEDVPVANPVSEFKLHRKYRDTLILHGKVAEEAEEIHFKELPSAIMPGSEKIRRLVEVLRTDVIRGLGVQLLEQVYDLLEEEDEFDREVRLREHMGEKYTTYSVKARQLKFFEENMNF
Chain of Cyclin-dependent kinase 7 (P50613 whole entry): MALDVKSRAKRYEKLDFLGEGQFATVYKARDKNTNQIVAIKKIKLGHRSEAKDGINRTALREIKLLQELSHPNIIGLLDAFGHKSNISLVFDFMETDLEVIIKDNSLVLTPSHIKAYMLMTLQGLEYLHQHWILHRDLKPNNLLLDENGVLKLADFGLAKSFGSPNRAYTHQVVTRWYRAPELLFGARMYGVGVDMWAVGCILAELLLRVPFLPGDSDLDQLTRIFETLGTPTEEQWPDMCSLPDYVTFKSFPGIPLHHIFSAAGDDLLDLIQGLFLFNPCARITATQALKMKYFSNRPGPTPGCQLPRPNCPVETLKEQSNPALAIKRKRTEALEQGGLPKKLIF
Chain of Insulin receptor (P06213 28-758 limits assumed): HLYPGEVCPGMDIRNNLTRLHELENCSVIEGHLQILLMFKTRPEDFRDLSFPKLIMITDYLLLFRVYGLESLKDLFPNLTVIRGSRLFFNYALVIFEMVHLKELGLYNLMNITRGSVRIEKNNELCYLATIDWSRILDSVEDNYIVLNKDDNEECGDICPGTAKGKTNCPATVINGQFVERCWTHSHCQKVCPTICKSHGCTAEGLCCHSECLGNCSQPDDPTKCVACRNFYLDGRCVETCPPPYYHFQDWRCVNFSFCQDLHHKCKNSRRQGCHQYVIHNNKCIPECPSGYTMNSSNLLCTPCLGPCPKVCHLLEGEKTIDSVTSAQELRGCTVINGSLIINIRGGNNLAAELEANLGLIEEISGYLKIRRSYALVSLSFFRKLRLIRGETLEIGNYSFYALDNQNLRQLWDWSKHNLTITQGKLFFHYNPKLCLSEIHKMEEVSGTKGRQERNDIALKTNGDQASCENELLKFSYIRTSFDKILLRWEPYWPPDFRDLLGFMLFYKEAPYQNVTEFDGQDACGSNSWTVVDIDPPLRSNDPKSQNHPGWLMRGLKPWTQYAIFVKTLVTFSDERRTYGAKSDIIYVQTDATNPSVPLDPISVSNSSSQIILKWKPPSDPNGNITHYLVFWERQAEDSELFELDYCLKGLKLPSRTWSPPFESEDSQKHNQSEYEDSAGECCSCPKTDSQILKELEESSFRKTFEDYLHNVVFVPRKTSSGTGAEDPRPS
Chain of Insulin receptor (P06213 763-1382 limits assumed): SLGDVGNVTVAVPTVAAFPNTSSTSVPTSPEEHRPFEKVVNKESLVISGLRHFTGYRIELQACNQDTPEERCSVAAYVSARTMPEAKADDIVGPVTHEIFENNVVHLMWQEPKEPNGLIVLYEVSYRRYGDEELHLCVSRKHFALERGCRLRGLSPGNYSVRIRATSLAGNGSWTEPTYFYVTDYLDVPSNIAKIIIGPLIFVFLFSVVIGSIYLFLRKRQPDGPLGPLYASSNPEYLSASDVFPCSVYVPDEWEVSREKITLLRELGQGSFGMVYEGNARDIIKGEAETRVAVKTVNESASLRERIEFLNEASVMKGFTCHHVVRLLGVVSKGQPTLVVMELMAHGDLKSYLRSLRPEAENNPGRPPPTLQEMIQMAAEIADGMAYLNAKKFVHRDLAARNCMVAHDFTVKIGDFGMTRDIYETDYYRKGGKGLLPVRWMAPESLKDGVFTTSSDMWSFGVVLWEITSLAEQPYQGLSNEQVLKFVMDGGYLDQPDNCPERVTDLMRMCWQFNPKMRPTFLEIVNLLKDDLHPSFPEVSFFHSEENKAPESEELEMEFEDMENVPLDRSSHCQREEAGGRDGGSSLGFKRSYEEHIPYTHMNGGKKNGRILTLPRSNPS
Chain of BDNF/NT-3 growth factors receptor (Q16620 whole entry): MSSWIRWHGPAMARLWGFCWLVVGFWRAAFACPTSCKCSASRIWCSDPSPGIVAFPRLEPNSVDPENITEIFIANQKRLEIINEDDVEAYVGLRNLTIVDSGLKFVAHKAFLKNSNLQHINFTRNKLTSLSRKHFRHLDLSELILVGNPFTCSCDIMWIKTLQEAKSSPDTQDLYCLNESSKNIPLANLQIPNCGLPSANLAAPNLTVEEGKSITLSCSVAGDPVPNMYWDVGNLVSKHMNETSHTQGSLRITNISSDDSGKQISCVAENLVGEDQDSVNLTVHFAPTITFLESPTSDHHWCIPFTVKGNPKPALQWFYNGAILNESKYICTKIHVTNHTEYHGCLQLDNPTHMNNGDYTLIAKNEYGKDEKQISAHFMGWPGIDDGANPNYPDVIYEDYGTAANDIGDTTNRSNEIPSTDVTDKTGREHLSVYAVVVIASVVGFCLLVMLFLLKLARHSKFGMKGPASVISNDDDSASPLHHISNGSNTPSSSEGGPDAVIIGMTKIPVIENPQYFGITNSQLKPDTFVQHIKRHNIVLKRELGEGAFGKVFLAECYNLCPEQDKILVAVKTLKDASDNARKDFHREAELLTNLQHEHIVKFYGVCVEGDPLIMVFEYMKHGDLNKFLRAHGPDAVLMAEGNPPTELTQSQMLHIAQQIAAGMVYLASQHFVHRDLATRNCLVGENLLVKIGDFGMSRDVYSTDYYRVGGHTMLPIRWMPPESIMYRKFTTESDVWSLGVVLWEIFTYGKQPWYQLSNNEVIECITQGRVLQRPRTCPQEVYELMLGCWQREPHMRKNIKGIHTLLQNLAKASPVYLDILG

With `Clc1cc(-c2c[nH]c3ncccc23)nc(NC2CCCCC2)n1`, the Ki is 7.94 nM (active) in experiment [1]; 501 nM (active) in [2]; 7.94 nM (active) at Misshapen-like kinase 1; > 2000 nM (inactive) in experiment [3]; 398 nM (active) in [4]; > 3980 nM (inactive) in experiment [5]. In addition, the Ki in [6] is > 5010 nM (inactive); in experiment [7] it was > 6310 nM (inactive); in experiment [8] it was 2510 nM (active); on Insulin receptor, 3160 nM (active); in experiment [9], > 2510 nM (inactive); in experiment [10] it was 0.501 nM (active). Also, the Ki in experiment [11] is 2000 nM (active); in experiment [12], > 6310 nM (inactive); in experiment [13] it was 31.6 nM (active); in experiment [14] it was > 10000 nM (inactive).

Regarding `CCC(=O)NC(c1ccccc1OC)c1ccc2cccnc2c1O` (stereo not given), the AC50 in [15] was 6700 nM (active).

Turning to `CC(C)N(C(=O)Nc1ccc2nsnc2c1)C(C)C`, in experiment [16], the IC50 is > 50000 nM (not active).

Turning to `NS(=O)(=O)c1ccc(NC2=CC(=O)C(=O)c3ccccc32)cc1`, the half-maximal activity concentration (AC50) in [17] is 1840 nM (active); in [18], 3100 nM (active).

The record behind these values is ChEMBL document CHEMBL1201862, “PubChem BioAssay data set” (2004).
